Measured values: US12180187B2, “1-phenyl-5-azinylpyrazolyl-3-oxyalkyl acids and their use for controlling unwanted plant growth” (BAYER AKTIENGESELLSCHAFT, priority 2019, dated 2024)

Columns and labels:
[1] = system: MATIN; assay: Pre-emergence action at 320 g/ha against MATIN; type: in vivo, Tripleurospermum inodorum (Matricaria inodora); details: visual scoring after about 3 weeks vs untreated controls
Excerpt: (§1) b) Seeds of monocotyledonous and dicotyledonous weed plants and crop plants are placed in plastic or organic planting pots and covered with soil. The compounds of the invention, formulated in the form of wettable powders (WP) or as emulsion concentrates (EC), are then applied onto the surface of the covering soil as aqueous suspension or emulsion with addition of 0.5% additive at a water application rate of 600 l/ha (converted). After the treatment, the pots are placed in a greenhouse and kept under good growth conditions for the trial plants. After about 3 weeks, the effect of the preparations is scored visually in comparison with untreated controls as percentages. For example, 100% activity=the plants have died, 0% activity=like control plants. Tables 13 to 26 below show the effects of selected compounds of the general formula (I) on various harmful plants and at an application rate corresponding to 320 g/ha, which were obtained by the experimental procedure mentioned above.

[2] = system: AMARE; assay: Pre-emergence action at 320 g/ha against AMARE; type: in vivo, Amaranthus retroflexus; details: visual scoring after about 3 weeks vs untreated controls
Excerpt: as §1

[3] = system: ALOMY; assay: Pre-emergence action at 320 g/ha against ALOMY; type: in vivo, Alopecurus myosuroides; details: scored visually after about 3 weeks vs untreated controls (100% = plants have died)
Excerpt: as §1

[4] = system: VIOTR; assay: Pre-emergence action at 320 g/ha against VIOTR; type: in vivo, Viola tricolor; details: dosage 320 g/ha
Excerpt: as §1

[5] = system: POLCO; assay: Pre-emergence action at 320 g/ha against POLCO; type: in vivo, Fallopia convolvulus (Polygonum convolvulus); details: visual scoring after about 3 weeks vs untreated controls
Excerpt: as §1

[6] = system: SETVI; assay: Pre-emergence action at 320 g/ha against SETVI; type: in vivo, Setaria viridis; details: visual scoring after about 3 weeks vs untreated controls
Excerpt: as §1

[7] = system: LOLRI; assay: Pre-emergence action at 320 g/ha against LOLRI; type: in vivo, Lolium rigidum; details: visual scoring after about 3 weeks vs untreated controls
Excerpt: as §1

[8] = system: DIGSA; assay: Pre-emergence action at 320 g/ha against DIGSA; type: in vivo, Digitaria sanguinalis; details: visual scoring after about 3 weeks vs untreated controls
Excerpt: as §1

[9] = system: VERPE; assay: Pre-emergence action at 320 g/ha against VERPE; type: in vivo, Veronica persica; details: visual scoring after about 3 weeks vs untreated controls
Excerpt: as §1

[10] = system: ECHCG; assay: Post-emergence action against ECHCG, 1.28 kg/ha; type: in vivo, Echinochloa crus-galli; details: dosage 1280 g/ha, visual rating about 3 weeks after treatment vs untreated controls
Procedure: (§2) • a) Seeds of mono- and dicotyledonous weed plants are placed in plastic pots in sandy loam soil (twin sowing with one species each of mono- or dicotyledonous weed plants per pot), covered with soil and cultivated in a greenhouse under controlled growth conditions. 2 to 3 weeks after sowing, the test plants are treated at the one-leaf stage. The compounds of the invention, formulated in the form of wettable powders (WP) or as emulsion concentrates (EC), are applied to the green parts of the plants as aqueous suspension or emulsion with addition of 0.5% additive at a water application rate equivalent to 600 litres per hectare. After the test plants have been kept in the greenhouse under optimum growth conditions for about 3 weeks, the activity of the preparations is rated visually in comparison to untreated controls. For example, 100% activity=the plants have died, 0% activity=like control plants. As shown by the results, compounds of the general formula (I) of the invention, in post-emergence treatment, have very good herbicidal efficacy (90% to 100% herbicidal action) against harmful plants such as Abutilon theophrasti, Digitaria sanguinalis, Echinochloa crus-galli, Matricaria inodora, Poa annua, at an application rate of 1.28 kg of active substance per hectare.

[11] = system: MATIN; assay: Post-emergence action against MATIN, 1.28 kg/ha; type: in vivo, Tripleurospermum inodorum (Matricaria inodora); details: dosage 1280 g/ha, visual rating about 3 weeks after treatment vs untreated controls (100% = plants died)
Procedure: as §2

[12] = system: ABUTH; assay: Post-emergence action against ABUTH, 1.28 kg/ha; type: in vivo, Abutilon theophrasti; details: dosage 1280 g/ha, visual rating about 3 weeks after treatment vs untreated controls (100% = plants died)
Procedure: as §2

[13] = system: SETVI; assay: Pre-emergence action against SETVI, 1280 g/ha; type: in vivo, Setaria viridis; details: visual scoring after about 3 weeks vs untreated controls, 100% = plants have died, 0% = like control plants
Excerpt: (§3) 1. Pre-Emergence Herbicidal Effect and Crop Plant Compatibility a) Seeds of mono- and dicotyledonous weed plants are placed in plastic pots in sandy loam soil (doubly sown with one species each of mono- or dicotyledonous weed plants per pot) and covered with soil. The compounds of the invention, formulated in the form of wettable powders (WP) or as emulsion concentrates (EC), are then applied onto the surface of the covering soil as aqueous suspension or emulsion with addition of 0.5% additive at a water application rate equivalent to 600 litres per hectare. After the treatment, the pots are placed in a greenhouse and kept under good growth conditions for the trial plants. After about 3 weeks, the effect of the preparations is scored visually in comparison with untreated controls as percentages. For example, 100% activity=the plants have died, 0% activity=like control plants. 1. Pre-Emergence Effectiveness Tables 1 to 12 below show the effects of selected compounds of the general formula (I) according to Tables 1 and 2 on various harmful plants and at an application rate corresponding to 1280 g/ha, which were obtained by the experimental procedure mentioned above.

[14] = system: LOLRI; assay: Pre-emergence action against LOLRI, 1280 g/ha; type: in vivo, Lolium rigidum; details: visual scoring after about 3 weeks vs untreated controls, 100% = plants have died, 0% = like control plants
Excerpt: as §3

[15] = system: VERPE; assay: Pre-emergence action against VERPE, 1280 g/ha; type: in vivo, Veronica persica; details: scored visually after about 3 weeks vs untreated controls (100% = plants have died)
Excerpt: as §3

[16] = system: AMARE; assay: Pre-emergence action against AMARE, 1280 g/ha; type: in vivo, Amaranthus retroflexus; details: scored visually after about 3 weeks vs untreated controls (100% = plants have died)
Excerpt: as §3

[17] = system: DIGSA; assay: Pre-emergence action against DIGSA, 1280 g/ha; type: in vivo, Digitaria sanguinalis; details: visual scoring after about 3 weeks vs untreated controls, 100% = plants have died, 0% = like control plants
Excerpt: as §3

[18] = system: SETVI; assay: Post-emergence action against SETVI, 1.28 kg/ha; type: in vivo, Setaria viridis; details: dosage 1280 g/ha, visual rating about 3 weeks after treatment vs untreated controls
Procedure: as §2

[19] = system: DIGSA; assay: Post-emergence action against DIGSA, 1.28 kg/ha; type: in vivo, Digitaria sanguinalis; details: dosage 1280 g/ha, visual rating about 3 weeks after treatment vs untreated controls
Procedure: as §2

[20] = system: ALOMY; assay: Post-emergence action against ALOMY, 1.28 kg/ha; type: in vivo, Alopecurus myosuroides; details: dosage 1280 g/ha, visual rating about 3 weeks after treatment vs untreated controls
Procedure: as §2

[21] = system: STEME; assay: Pre-emergence action against STEME, 1280 g/ha; type: in vivo, Stellaria media; details: scored visually after about 3 weeks vs untreated controls (100% = plants have died)
Excerpt: as §3

[22] = system: POAAN; assay: Post-emergence action against POAAN, 1.28 kg/ha; type: in vivo, Poa annua; details: dosage 1280 g/ha, visual rating about 3 weeks after treatment vs untreated controls
Procedure: as §2

[23] = system: VERPE; assay: Post-emergence action against VERPE, 1.28 kg/ha; type: in vivo, Veronica persica; details: dosage 1280 g/ha, visual rating about 3 weeks after treatment vs untreated controls (100% = plants died)
Procedure: as §2

[24] = system: POAAN; assay: Pre-emergence action against POAAN, 1280 g/ha; type: in vivo, Poa annua; details: visual scoring after about 3 weeks vs untreated controls, 100% = plants have died, 0% = like control plants
Excerpt: as §3

[25] = system: MATIN; assay: Pre-emergence action against MATIN, 1280 g/ha; type: in vivo, Tripleurospermum inodorum (Matricaria inodora); details: scored visually after about 3 weeks vs untreated controls (100% = plants have died)
Excerpt: as §3

[26] = system: STEME; assay: Post-emergence action against STEME, 1.28 kg/ha; type: in vivo, Stellaria media; details: dosage 1280 g/ha, visual rating about 3 weeks after treatment vs untreated controls (100% = plants died)
Procedure: as §2

[27] = system: AMARE; assay: Post-emergence action against AMARE, 1.28 kg/ha; type: in vivo, Amaranthus retroflexus; details: dosage 1280 g/ha, visual rating about 3 weeks after treatment vs untreated controls (100% = plants died)
Procedure: as §2

[28] = system: ECHCG; assay: Pre-emergence action against ECHCG, 1280 g/ha; type: in vivo, Echinochloa crus-galli; details: visual scoring after about 3 weeks vs untreated controls, 100% = plants have died, 0% = like control plants
Excerpt: as §3

[29] = system: ALOMY; assay: Pre-emergence action against ALOMY, 1280 g/ha; type: in vivo, Alopecurus myosuroides; details: visual scoring after about 3 weeks vs untreated controls, 100% = plants have died, 0% = like control plants
Excerpt: as §3

Structure (SMILES)	Pre-emergence action against MATIN in % [1] [%]	Pre-emergence action against AMARE in % [2] [%]	Pre-emergence action at 320 g/ha against ALOMY in % [3] [%]	Pre-emergence action against VIOTR in % [4] [%]	Pre-emergence action against POLCO in % [5] [%]	Pre-emergence action against VERPE in % [9] [%]	Pre-emergence action against SETVI [13] [%]	Pre-emergence action against LOLRI [14] [%]	Pre-emergence action against AMARE [16] [%]	Post-emergence action against SETVI [18] [%]	Pre-emergence action against STEME [21] [%]	Pre-emergence action against POAAN [24] [%]	Pre-emergence action against MATIN [25] [%]	other results
O=C(O)CNC(=O)C(F)Oc1nn(-c2ccccc2F)c(-c2ccc(F)nc2)c1Br (centres unmarked) [Example X-012]	90	100	90	100	90									Pre-emergence action against SETVI in % [6]: 90%
COC(=O)CNC(=O)C(F)Oc1nn(-c2ccccc2F)c(-c2ccc(F)nc2)c1Br (centres unmarked) [Example X-014]	90	100	90	100										Pre-emergence action against LOLRI in % [7]: 90%; Pre-emergence action against SETVI in % [6]: 90%
COC(=O)CN(C)C(=O)COc1nn(-c2ccccc2F)c(-c2ccc(F)nc2)c1Br [Example X-030]		90	90	90										Pre-emergence action against DIGSA in % [8]: 100%; Pre-emergence action against SETVI in % [6]: 80%
COC(=O)C1CCCN(C(=O)COc2nn(-c3ccccc3F)c(-c3cncc(F)c3)c2Br)C1 (centres unmarked) [Example X-034]				90		90								
COC(=O)C1CCN(C(=O)COc2nn(-c3ccccc3F)c(-c3cncc(F)c3)c2Br)C1 (centres unmarked) [Example X-037]		100			90	100								
O=C(O)C1CCN(C(=O)COc2nn(-c3ccccc3F)c(-c3cncc(F)c3)c2Br)CC1 [Example X-038]							100	90	100	90	90	100	90	Post-emergence action against ECHCG [10]: 90%; Post-emergence action against MATIN [11]: 100%; Post-emergence action against ABUTH [12]: 90%; Pre-emergence action against VERPE [15]: 90%; Pre-emergence action against DIGSA [17]: 90%; Post-emergence action against DIGSA [19]: 90%; Post-emergence action against ALOMY [20]: 90%; Post-emergence action against POAAN [22]: 100%; Post-emergence action against VERPE [23]: 100%
CCOC(=O)COc1nn(-c2cc(F)c(F)cc2F)c(-c2ccc(F)nc2)c1Cl [VII-009]							100	100	100	90	100	100	100	Post-emergence action against ECHCG [10]: 100%; Post-emergence action against MATIN [11]: 100%; Post-emergence action against STEME [26]: 100%; Post-emergence action against AMARE [27]: 100%; Post-emergence action against ABUTH [12]: 90%; Pre-emergence action against VERPE [15]: 90%; Pre-emergence action against ECHCG [28]: 90%; Post-emergence action against POAAN [22]: 100%; Post-emergence action against VERPE [23]: 90%
CCOC(=O)COc1nn(-c2ccc(F)cc2F)c(-c2ccc(F)nc2)c1F [VII-027]							90	100	90	90	100	90	90	Post-emergence action against AMARE [27]: 90%; Pre-emergence action against ECHCG [28]: 90%; Pre-emergence action against DIGSA [17]: 90%; Post-emergence action against DIGSA [19]: 100%; Post-emergence action against ALOMY [20]: 100%; Post-emergence action against VERPE [23]: 90%
C[C@@H](Oc1nn(-c2ccccc2)c(-c2cccnc2)c1Cl)C(=O)O [VII-042]	90	100	90	100	100	90								Pre-emergence action against LOLRI in % [7]: 100%
CCOC(=O)C(F)Oc1nn(-c2ccccc2F)c(-c2ccc(F)nc2)c1Br (centres unmarked) [VII-071-a]	90	100	80	100	90	80								Pre-emergence action against LOLRI in % [7]: 100%; Pre-emergence action against DIGSA in % [8]: 90%
CCOC(=O)COc1nn(-c2ccccc2F)c(-c2ccc(F)nc2)c1C(F)F [VII-078]		100	80	90		80								
C#Cc1c(OCC(=O)OCC)nn(-c2ccccc2F)c1-c1ccc(F)nc1 [VII-088]							100	100	100	90	100	100	100	Post-emergence action against ECHCG [10]: 100%; Post-emergence action against MATIN [11]: 100%; Post-emergence action against STEME [26]: 90%; Post-emergence action against AMARE [27]: 100%; Post-emergence action against ABUTH [12]: 90%; Pre-emergence action against VERPE [15]: 100%; Pre-emergence action against ECHCG [28]: 100%; Pre-emergence action against DIGSA [17]: 100%; Post-emergence action against DIGSA [19]: 100%; Post-emergence action against POAAN [22]: 100%; Pre-emergence action against ALOMY [29]: 100%
